Tests used:
[1] = target: T1, Proteasome Macropain subunit MB1 (Homo sapiens, UniProt P28074); assay: Inhibition of chymotrypsin-like activity of human erythrocyte-derived 20S proteasome using Suc-LLVY-AMC as substrate preincubated for 10 mins followed by substrate addition measured every 15 secs for 30 mins by fluorescence assay
T1 sequence (P28074 whole entry): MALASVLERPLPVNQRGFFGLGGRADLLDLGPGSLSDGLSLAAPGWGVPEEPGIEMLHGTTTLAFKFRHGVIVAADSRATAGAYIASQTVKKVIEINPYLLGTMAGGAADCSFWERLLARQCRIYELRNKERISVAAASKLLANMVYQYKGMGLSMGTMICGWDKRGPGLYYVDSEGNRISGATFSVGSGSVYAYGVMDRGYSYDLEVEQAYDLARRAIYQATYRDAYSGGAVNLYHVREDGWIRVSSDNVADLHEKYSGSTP

[2] = Inhibition of chymotrypsin-like activity of rabbit 20S proteasome using Suc-LLVY-AMC as substrate after 2 hrs by fluorescence assay; set-up: species or system Oryctolagus cuniculus
[3] = Inhibition of proteasome (unknown origin); set-up: species or system Homo sapiens

Work on `CC[C@H](C)[C@H](NC(=O)[C@@H](NC(=O)C1OC(=O)C1C(C)C)C(C)C)C(=O)O` (stereo not given in full) yielded an IC50 [1] of 360 nM.

With `CC[C@H](C)[C@@H]1C(=O)O[C@H]1C(=O)N[C@H]1C[C@H]1C[C@H](NC(=O)[C@H](C)N)C(=O)O` [BELACTOSIN A] the IC50 [2] was 210 nM.

`CC[C@H](C)[C@@H]1C(=O)O[C@H]1C(=O)NCCC[C@H](NC(=O)[C@H](C)N)C(=O)O` [BELACTOSIN C] gave an IC50 [2] of 210 nM.

With `CC(C)C[C@H](NC(=O)[C@H](Cc1ccccc1)NC(=O)c1cnccn1)B(O)O` [BORTEZOMIB] the Ki [3] was 0.6 nM.

With `CC(C)C[C@H](NC(=O)[C@H](CCc1ccccc1)NC(=O)CN1CCOCC1)C(=O)N[C@@H](Cc1ccccc1)C(=O)N[C@@H](CC(C)C)C(=O)[C@@]1(C)CO1` [CARFILZOMIB] the IC50 [3] was 5 nM.

Source: ChEMBL document CHEMBL3576823, “Cystargolides, 20S Proteasome Inhibitors Isolated from Kitasatospora cystarginea” (J Nat Prod, 2015)
